# Numbered stars: 1 amine (or outer) side, 2 acyl side, 3 side chain; on linkers, the order of the positions; unused ones are H or OH. Bridge positions count the residues as written; N and C are the ends. Square brackets hold non-standard residues; d marks the D form. Peptide text beside a SMILES is read from it. Trp(5-Cl) = N[C@@H](Cc1c[nH]c2ccc(Cl)cc12)C(=O)O; X3 = O=C(C(Cc1ccc(Br)s1)N[*:1])[*:2]; mXylylene = c1cc(C[*:1])cc(C[*:2])c1; NMeY = CN[C@@H](Cc1ccc(O)cc1)C(=O)O; NMeT = CN[C@H](C(=O)O)[C@@H](C)O; dPhg = N[C@@H](C(=O)O)c1ccccc1; Phg = N[C@H](C(=O)O)c1ccccc1; Tle = CC(C)(C)[C@H](N)C(=O)O; NMeS = CN[C@@H](CO)C(=O)O; Dab = NCC[C@H](N)C(=O)O; Mpa = O=C(O)CCS
# Biological target: T1, human plasma kallikrein (Homo sapiens, UniProt P03952)
# T1 construct: purchased Enzyme Research Laboratories HPKa 1303
# T1 sequence (P03952 20-390 limits assumed): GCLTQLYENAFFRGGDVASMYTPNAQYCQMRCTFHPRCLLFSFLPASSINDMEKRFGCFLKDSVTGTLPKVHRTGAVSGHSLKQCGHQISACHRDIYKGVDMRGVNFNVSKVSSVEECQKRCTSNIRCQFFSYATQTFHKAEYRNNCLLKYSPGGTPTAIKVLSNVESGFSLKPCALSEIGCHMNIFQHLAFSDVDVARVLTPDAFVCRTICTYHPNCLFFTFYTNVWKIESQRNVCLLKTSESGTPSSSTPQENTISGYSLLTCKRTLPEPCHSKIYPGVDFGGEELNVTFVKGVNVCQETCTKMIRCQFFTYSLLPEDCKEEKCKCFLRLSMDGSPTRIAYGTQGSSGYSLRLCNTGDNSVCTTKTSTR
# T1 sequence (P03952 391-638 limits assumed): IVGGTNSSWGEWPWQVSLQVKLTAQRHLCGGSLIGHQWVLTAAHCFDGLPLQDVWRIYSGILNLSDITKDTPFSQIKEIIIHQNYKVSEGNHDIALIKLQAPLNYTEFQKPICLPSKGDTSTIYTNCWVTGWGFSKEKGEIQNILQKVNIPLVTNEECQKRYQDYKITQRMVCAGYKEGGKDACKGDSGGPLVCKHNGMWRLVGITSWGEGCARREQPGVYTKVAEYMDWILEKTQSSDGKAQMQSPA
# Experiment: Enzyme inhibition assay (fluorogenic substrate H-Pro-Phe-Arg-AMC)
# Type: biochemical
# Conditions: Kallikrein inhibitory activity; 1 nM activated human kallikrein, 500 μM H-Pro-Phe-Arg-AMC, 1 hour room temperature; read-out: Avg. IC50
# Experimental: Activated human plasma kallikrein (Enzyme Research Laboratories, HPKa 1303) was reacted with H-Pro-Phe-Arg-7-amido-4-methylcoumarin (H-Pro-Pre-Arg-AMC) (a fluorogenic substrate for plasma as well as pancreatic and urinary kallikreins; Bachem I-1295) and candidate inhibitory peptides to determine the IC50 of the inhibitor.
# Ten 8-fold serial dilutions of peptides (10 mM DMSO stocks) were performed in DMSO and then added to TCNB (50 mM Tris-HCl pH 7.2, 150 mM NaCl, 10 mM CaCl2, 0.05% Brij-35) and sonicated. 50 μL of the peptide dilutions were added to microtitre plates (96 well, black non-binding surface, Corning, 3650) and incubated for 5 minutes at room temperature with 4 nM activated human kallikrein (final concentration after addition of fluorogenic substrate: 1 nM). The samples were then incubated for 1 hour at room temperature with 2 mM H-Pro-Phe-Arg-AMC (final concentration 500 μM). Relative Fluorescence Units (RFU) were measured at excitation/emission 360 nm/460 nm by a SpectraMax M3.
row,IC50 [µM],SMILES
1,> 100,"CC(C)(C)[C@H](NC(=O)C(Cc1ccc(Br)s1)NC(=O)[C@@H]1CSCc2cccc(c2)CSCCC(=O)N2CCC[C@H]2C(=O)N[C@H](c2ccccc2)C(=O)N1)C(N)=O (stereo partly drawn) [Compound R2220, [mXylyl(1,4)](des-NH2)C-P-(D-Phg)-C-ABP-Tbg-NH2] ([Mpa]P[dPhg]C[X3][Tle]-NH2; linker 1-4 via mXylylene)"
2,> 100,"CC(=O)N[C@H]1CSCc2cccc(c2)CSC[C@@H](C(N)=O)NC(=O)[C@H](C)NC(=O)[C@H]([C@@H](C)O)N(C)C(=O)[C@H](Cc2c[nH]c3ccccc23)NC(=O)[C@@H]2CCCN2C(=O)[C@H](CO)N(C)C(=O)[C@H](Cc2c[nH]c3ccccc23)NC(=O)[C@H](Cc2ccc(O)cc2)N(C)C(=O)[C@H](CC(N)=O)NC1=O [Compound R2223, [mXylyl(1,10)]Ac-CN-nMeY-W-nMeS-PW-nMeT-AC-NH2] (Ac-CN[NMeY]W[NMeS]PW[NMeT]AC-NH2; linker 1-10 via mXylylene)"
3,> 100,"CC(=O)N[C@H]1CSSC[C@@H](C(N)=O)NC(=O)[C@H](C)NC(=O)[C@H]([C@@H](C)O)N(C)C(=O)[C@H](Cc2c[nH]c3ccccc23)NC(=O)[C@@H]2CCCN2C(=O)[C@H](CO)N(C)C(=O)[C@H](Cc2c[nH]c3ccccc23)NC(=O)[C@H](Cc2ccc(O)cc2)N(C)C(=O)[C@H](CC(N)=O)NC1=O [Compound R2224, [cyclo(1,10)]Ac-CN-nMeY-W-nMeS-PW-nMeT-AC-NH2] (Ac-CN[NMeY]W[NMeS]PW[NMeT]AC-NH2; disulfide 1-10)"
4,> 10.6,"CC(=O)N[C@@H](CS)C(=O)N[C@@H](CC(N)=O)C(=O)N[C@@H](Cc1ccc(O)cc1)C(=O)N[C@@H](Cc1c[nH]c2ccccc12)C(=O)N[C@@H](CO)C(=O)N1CCC[C@H]1C(=O)N[C@H](Cc1c[nH]c2ccccc12)C(=O)N[C@H](C(=O)N[C@@H](C)C(=O)N[C@@H](CS)C(N)=O)[C@@H](C)O [Compound R2228, Ac-CNYWSPwTAC-NH2] (Ac-CNYWSP[dW]TAC-NH2)"
5,> 14.3,"CC(=O)N[C@@H](CS)C(=O)N[C@@H](CC(N)=O)C(=O)N[C@@H](Cc1ccc(O)cc1)C(=O)N[C@@H](Cc1c[nH]c2ccccc12)C(=O)N[C@@H](CO)C(=O)N1CCC[C@@H]1C(=O)N[C@@H](Cc1c[nH]c2ccccc12)C(=O)N[C@H](C(=O)N[C@@H](C)C(=O)N[C@@H](CS)C(N)=O)[C@@H](C)O [Compound R2229, Ac-CNYWSpWTAC-NH2] (Ac-CNYWS[dP]WTAC-NH2)"

# The next lines start with the compound.
row,SMILES,IC50 [µM]
1,"CC(C)(C)[C@H](NC(=O)[C@H](Cc1c[nH]c2ccc(Cl)cc12)NC(=O)[C@@H]1CSCc2cccc(c2)CSCCC(=O)N2CCC[C@H]2C(=O)N[C@H](c2ccccc2)C(=O)N1)C(N)=O [Compound R2210, [mXylyl(1,4)](des-NH2)C-P-(D-Phg)-C-5-C1-Trp-Tbg-NH2] ([Mpa]P[dPhg]C[Trp(5-Cl)][Tle]-NH2; linker 1-4 via mXylylene)",> 75
2,"CC(C)(C)[C@H](NC(=O)[C@H](CCN)NC(=O)[C@@H]1CSCc2cccc(c2)CSCCC(=O)N2CCC[C@H]2C(=O)N[C@@H](c2ccccc2)C(=O)N1)C(N)=O [Compound R2211, [mXylyl(1,4)](des-NH2)C-P-Phg-C-Dab-Tbg-NH2] ([Mpa]P[Phg]C[Dab][Tle]-NH2; linker 1-4 via mXylylene)",> 75
3,"CC(C)(C)[C@H](NC(=O)[C@H](CCN)NC(=O)[C@@H]1CSCc2cccc(c2)CSCCC(=O)N2CCC[C@H]2C(=O)N[C@H](c2ccccc2)C(=O)N1)C(N)=O [Compound R2212, [mXylyl(1,4)](des-NH2)C-P-(D-Phg)-C-Dab-Tbg-NH2] ([Mpa]P[dPhg]C[Dab][Tle]-NH2; linker 1-4 via mXylylene)",> 100
4,"CC(C)(C)[C@H](NC(=O)C(Cc1ccc(Br)s1)NC(=O)[C@@H]1CSCc2cccc(c2)CSCCC(=O)N2CCC[C@H]2C(=O)N[C@@H](c2ccccc2)C(=O)N1)C(N)=O (stereo partly drawn) [Compound R2219, [mXylyl(1,4)](des-NH2)C-P-Phg-C-ABP-Tbg-NH2] ([Mpa]P[Phg]C[X3][Tle]-NH2; linker 1-4 via mXylylene)",> 100
